{"source": "paper PMC4234265", "about": "“The C-terminus of nisin is important for the ABC transporter NisFEG to confer immunity in Lactococcus lactis” (MicrobiologyOpen, 2014)", "key": {"NZ9000Erm strain": {"system": "NZ9000Erm strain", "experiment": "Growth inhibition (IC50) of nisin and variants, sensitive strain", "type": "cell-based, Lactococcus lactis", "details": "from IC50 values against NZ9000Erm"}, "NZ9000NisFEG strain": {"system": "NZ9000NisFEG strain", "experiment": "Growth inhibition (IC50) of nisin and variants, NisFEG-expressing strain", "type": "cell-based, Lactococcus lactis", "details": "for Fold of immunity mediated by NisFEG: IC50 against NZ9000NisFEG compared with IC50 against NZ9000Erm; for Activity of NisFEG reduced to: fold of immunity for the variant relative to wild-type nisin", "method": "The NZ9000NisFEG and NZ9000NisFH181AEG strains were grown in GM17 media supplemented with 5 μg/mL chloramphenicol to an OD600 of 0.8. By the addition of nisin (final concentration of 1 ng/mL), the expression was induced and the culture was further grown overnight. After 15 h, the cells were diluted to an OD600 of 0.1 in fresh media supplemented with 5 μg/mL chloramphenicol and with the inducer nisin (10 ng/mL).\nThe NZ9000, NZ9000NisFEG, and NZ9000NisFH181AEG strains were grown overnight in GM17 media supplemented with 5 μg/mL chloramphenicol in the presence of 1 ng/mL nisin. The diluted cells (final OD600 was 0.1) were incubated with a serial dilution of nisin or its variants with 50 mmol/L lactic acid in a 96 well microtiter plate. The total volume in each well was 200 μL, consisting of 50 μL nisin and 150 μL GM17 containing the corresponding L. lactis strain.\nThe plate was incubated at 30°C. After 5 h, the optical density was measured at 620 nm via 96-plate reader BMG. The normalized optical density was plotted against the logarithm of the nisin concentration in order to calculate the IC50 of nisin and the data was evaluated using the following equation (1): [drawing 1] 1\nThe IC50 value is the concentration of nisin were the growth of the L. lactis strain is inhibited by 50% as described in more detail earlier (Abts et al. [2011])."}}, "data": [{"smiles": "C=C1NC(=O)[C@H]([C@@H](C)CC)NC(=O)[C@H](NC(=O)/C(=C/C)NC(=O)[C@@H](N)[C@@H](C)CC)CSC[C@@H](C(=O)N[C@H]2C(=O)N3CCC[C@H]3C(=O)NCC(=O)N[C@H](C(=O)N[C@@H](CCCCN)C(=O)N[C@H]3C(=O)NCC(=O)N[C@@H](C)C(=O)N[C@@H](CC(C)C)C(=O)N[C@@H](CCSC)C(=O)NCC(=O)N[C@H](C(=O)N[C@@H](CC(N)=O)C(=O)N[C@@H](CCSC)C(=O)N[C@@H](CCCCN)C(=O)O)CS[C@H]3C)CS[C@H]2C)NC(=O)[C@H](CC(C)C)NC1=O", "note": "[Nisin1-22]", "values": [{"measurement": "Fold reduction of antimicrobial activity compared to wild-type nisin", "setting": "NZ9000Erm strain", "value": 25, "unit": "fold"}, {"measurement": "Fold of immunity mediated by NisFEG", "setting": "NZ9000NisFEG strain", "value": 2.5, "unit": "fold"}, {"measurement": "Activity of NisFEG reduced to", "setting": "NZ9000NisFEG strain", "value": 33, "unit": "%"}]}, {"smiles": "C=C1NC(=O)[C@H]([C@@H](C)CC)NC(=O)[C@H](NC(=O)/C(=C/C)NC(=O)[C@@H](N)[C@@H](C)CC)CSC[C@@H](C(=O)N[C@H]2C(=O)N3CCC[C@H]3C(=O)NCC(=O)N[C@H](C(=O)N[C@@H](CCCCN)C(=O)N[C@H]3C(=O)NCC(=O)N[C@@H](C)C(=O)N[C@@H](CC(C)C)C(=O)N[C@@H](CCSC)C(=O)NCC(=O)N[C@H](C(=O)N[C@@H](CC(N)=O)C(=O)N[C@@H](CCSC)C(=O)N[C@@H](CCCCN)C(=O)N[C@H]4C(=O)N[C@@H](C)C(=O)N[C@H]5C(=O)N[C@@H](CS[C@H]4C)C(=O)N[C@@H](Cc4c[nH]cn4)C(=O)N[C@H](C(=O)O)CS[C@H]5C)CS[C@H]3C)CS[C@H]2C)NC(=O)[C@H](CC(C)C)NC1=O", "note": "[Nisin1-28]", "values": [{"measurement": "Fold reduction of antimicrobial activity compared to wild-type nisin", "setting": "NZ9000Erm strain", "value": 20, "unit": "fold"}, {"measurement": "Fold of immunity mediated by NisFEG", "setting": "NZ9000NisFEG strain", "value": 3.8, "unit": "fold"}, {"measurement": "Reduction of NisFEG activity / fold of immunity", "setting": "NZ9000NisFEG strain; decrease relative to wild-type nisin", "value": 50, "unit": "%"}, {"measurement": "Activity of NisFEG reduced to", "setting": "NZ9000NisFEG strain", "value": 60, "unit": "%"}]}]}
